# Active and inactive are the calls of the source.
# Assays:
# [1] = biological target: Luciferin 4-monooxygenase (Photinus pyralis, UniProt P08659); assay: firefly luciferase enzyme inhibitors, dose response, biochemical, luminescence (AID 1891)
# [2] = Luminescence Cell-Based Dose Confirmation HTS to Identify Inhibitors of Platelet Dense Granule Release. [Related pubchem assays: 1663 (Primary HTS), 1678 (Summary of Project)]; assay type: functional
# [3] = biological target: T1, Rac GTPase-activating protein 1 (Homo sapiens, UniProt Q9H0H5); assay: MgcRacGAP GTPase-activating activity inhibitors, confirmation, biochemical, ADP Hunter fluorescence, primary and confirmatory (AID 624330); assay type: functional
# T1 sequence (Q9H0H5 whole entry): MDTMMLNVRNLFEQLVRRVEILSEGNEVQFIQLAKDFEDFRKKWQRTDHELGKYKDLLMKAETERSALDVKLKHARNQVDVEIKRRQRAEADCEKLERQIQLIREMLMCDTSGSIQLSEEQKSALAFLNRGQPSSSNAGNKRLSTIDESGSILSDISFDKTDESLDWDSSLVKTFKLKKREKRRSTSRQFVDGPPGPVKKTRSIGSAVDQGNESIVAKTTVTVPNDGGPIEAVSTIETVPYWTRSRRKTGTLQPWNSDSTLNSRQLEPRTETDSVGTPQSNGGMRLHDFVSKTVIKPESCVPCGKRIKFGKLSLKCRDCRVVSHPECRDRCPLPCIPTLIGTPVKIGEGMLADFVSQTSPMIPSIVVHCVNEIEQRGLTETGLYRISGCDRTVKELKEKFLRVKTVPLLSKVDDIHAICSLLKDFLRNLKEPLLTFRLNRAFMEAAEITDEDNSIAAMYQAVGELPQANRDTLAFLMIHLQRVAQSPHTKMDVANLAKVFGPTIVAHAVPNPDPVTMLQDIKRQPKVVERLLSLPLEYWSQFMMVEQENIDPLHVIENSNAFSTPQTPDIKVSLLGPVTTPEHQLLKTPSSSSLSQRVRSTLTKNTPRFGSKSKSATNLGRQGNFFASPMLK
# [4] = Luminescence Cell-Based Dose Retest to Confirm Inhibitors of Cancer Stem Cells. [Related pubchem assays (depositor defined):AID2717, AID2721]; assay type: functional; settings: Homo sapiens
# [5] = inhibitors of intracellular T. cruzi replication, confirmation, NIH3T3 host cells, beta-gal luminescence (AID 2044); assay type: functional, cell-based;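 note: intracellular parasites grown in NIH/3T3 mouse fibroblasts as host cells; luminescent beta-galactosidase reporter signal from transgenic T. cruzi replicating inside host cells; inhibitors lower the luminescence signal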
# [6] = cytotoxicity toward NIH3T3 fibroblasts, dose response, counter-screen, cell-based, ATP luminescence, mouse fibroblasts (AID 2010); assay type: functional;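 note: cells exposed to compound for about 90 hours before reading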
# Cytochrome P450 3A4 = Cytochrome P450 3A4 (Homo sapiens, UniProt P08684);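 note: CYP3A4 tested as one member of a cytochrome P450 panel screen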
# Cytochrome P450 2C9 = Cytochrome P450 2C9 (Homo sapiens, UniProt P11712)
# Cytochrome P450 2C19 = Cytochrome P450 2C19 (Homo sapiens, UniProt P33261); assay: Cytochrome panel assay with activity outcomes. Panel member name: p450-cyp2c19 Compounds with AC50 equal or less than 10 uM are considered active; assay type: functional; settings: read-out: AC50
# INS1 = assay: beta cell apoptosis inhibitors, cytokine rescue, dose response, luminescence, retest (AID 449756); assay type: functional, cell-based; settings: Rattus norvegicus;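 note: cell death triggered by IL-1 beta plus TNF-alpha plus IFN-gamma mixture; protective hits raise ATP signal compared with cytokine alone wells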
# [7] = biological target: T2, Heat shock factor protein 1 (Mus musculus, UniProt P38532); assay: inhibition of MG132-induced HSE-luciferase signal, confirmation, cell-based, NIH3T3, luminescence, dose retest (AID 2382); assay type: functional;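 note: NIH3T3 fibroblasts with HSF1-driven luciferase reporter stressed by proteasome inhibitor MG132; luminescence from HSF1-driven luciferase expression after 8 hours of MG132 stress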
# T2 sequence (P38532 whole entry): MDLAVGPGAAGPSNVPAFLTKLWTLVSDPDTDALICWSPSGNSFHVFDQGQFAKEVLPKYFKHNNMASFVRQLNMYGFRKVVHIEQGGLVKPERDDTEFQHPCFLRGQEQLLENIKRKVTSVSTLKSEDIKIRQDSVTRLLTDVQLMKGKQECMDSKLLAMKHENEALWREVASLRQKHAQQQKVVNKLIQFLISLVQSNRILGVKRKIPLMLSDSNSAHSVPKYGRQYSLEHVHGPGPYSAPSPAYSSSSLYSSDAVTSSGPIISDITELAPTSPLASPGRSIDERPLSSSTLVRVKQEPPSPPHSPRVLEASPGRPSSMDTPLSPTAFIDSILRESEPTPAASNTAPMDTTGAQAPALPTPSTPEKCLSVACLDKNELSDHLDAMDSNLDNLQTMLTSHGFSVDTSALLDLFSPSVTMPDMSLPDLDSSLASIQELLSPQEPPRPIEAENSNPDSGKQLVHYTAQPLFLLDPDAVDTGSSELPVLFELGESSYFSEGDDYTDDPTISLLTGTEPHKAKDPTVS
# [8] = system: Streptococcus sp. 'group A'; assay: growth inhibition of control SK(-) GAS strain, dose response, counter-screen for streptokinase expression inhibitor project, luminescence, kanamycin, BacTiterGlo, confirmation (AID 1900); assay type: functional, organism-based
# Streptokinase A = biological target: T3, Streptokinase A (Streptococcus pyogenes serotype M1, UniProt P10520); assay: S. pyogenes streptokinase expression inhibitors, potency, dose response, plasminogen activation absorbance, OD405 (AID 1914); assay type: functional, Streptococcus pyogenes M1 GAS;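 note: secreted streptokinase activity via plasminogen activation per viability signal from cell pellet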
# T3 sequence (P10520 whole entry): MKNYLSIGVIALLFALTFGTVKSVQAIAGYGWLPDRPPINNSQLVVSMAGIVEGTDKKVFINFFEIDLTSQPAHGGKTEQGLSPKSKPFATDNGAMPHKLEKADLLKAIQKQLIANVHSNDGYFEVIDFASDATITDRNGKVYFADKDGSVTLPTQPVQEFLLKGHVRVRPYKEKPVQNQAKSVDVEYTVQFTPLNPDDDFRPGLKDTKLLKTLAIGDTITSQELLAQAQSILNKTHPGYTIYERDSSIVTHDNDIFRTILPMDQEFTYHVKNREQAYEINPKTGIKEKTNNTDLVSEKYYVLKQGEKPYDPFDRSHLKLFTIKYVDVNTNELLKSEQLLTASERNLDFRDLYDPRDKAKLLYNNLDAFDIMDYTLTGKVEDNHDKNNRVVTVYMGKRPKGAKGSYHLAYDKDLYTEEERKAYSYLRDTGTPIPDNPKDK
# Streptococcus = assay: Group A Streptococcus viability loss, dose response, counter-screen for streptokinase expression inhibitor project, luminescence, BacTiterGlo (AID 1915); assay type: functional, organism-based;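 note: potency for reduction of bacterial viability or growth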
# Cytochrome P450 3A4, sequence (P08684 whole entry): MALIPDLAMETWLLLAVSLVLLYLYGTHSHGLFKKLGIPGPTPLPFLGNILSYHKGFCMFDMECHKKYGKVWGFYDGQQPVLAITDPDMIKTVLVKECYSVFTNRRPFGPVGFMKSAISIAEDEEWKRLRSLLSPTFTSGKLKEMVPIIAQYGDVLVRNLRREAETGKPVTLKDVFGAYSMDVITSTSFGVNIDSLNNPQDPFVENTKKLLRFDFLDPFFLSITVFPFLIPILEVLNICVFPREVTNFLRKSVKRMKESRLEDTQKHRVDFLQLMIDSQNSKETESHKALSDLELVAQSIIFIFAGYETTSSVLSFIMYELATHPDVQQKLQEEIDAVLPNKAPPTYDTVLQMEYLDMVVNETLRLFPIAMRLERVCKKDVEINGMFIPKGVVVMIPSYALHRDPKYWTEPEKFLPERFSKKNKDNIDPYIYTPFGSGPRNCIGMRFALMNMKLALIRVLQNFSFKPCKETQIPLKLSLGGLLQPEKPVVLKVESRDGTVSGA
# Luciferin 4-monooxygenase, sequence (P08659 whole entry): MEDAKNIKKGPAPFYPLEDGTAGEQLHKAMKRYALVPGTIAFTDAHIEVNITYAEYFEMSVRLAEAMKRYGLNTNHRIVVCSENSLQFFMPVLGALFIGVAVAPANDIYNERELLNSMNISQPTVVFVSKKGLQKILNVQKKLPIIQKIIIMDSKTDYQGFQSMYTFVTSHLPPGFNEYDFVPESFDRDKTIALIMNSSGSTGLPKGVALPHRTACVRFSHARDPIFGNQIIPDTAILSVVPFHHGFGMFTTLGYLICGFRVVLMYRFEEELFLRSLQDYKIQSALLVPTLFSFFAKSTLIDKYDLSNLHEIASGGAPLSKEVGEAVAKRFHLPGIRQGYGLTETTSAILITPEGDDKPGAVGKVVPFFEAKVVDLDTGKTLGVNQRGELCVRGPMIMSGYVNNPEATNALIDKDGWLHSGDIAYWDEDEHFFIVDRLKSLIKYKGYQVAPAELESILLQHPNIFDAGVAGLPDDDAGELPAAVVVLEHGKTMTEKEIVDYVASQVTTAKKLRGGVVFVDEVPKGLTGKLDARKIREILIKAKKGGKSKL
# Cytochrome P450 2C19, sequence (P33261 whole entry): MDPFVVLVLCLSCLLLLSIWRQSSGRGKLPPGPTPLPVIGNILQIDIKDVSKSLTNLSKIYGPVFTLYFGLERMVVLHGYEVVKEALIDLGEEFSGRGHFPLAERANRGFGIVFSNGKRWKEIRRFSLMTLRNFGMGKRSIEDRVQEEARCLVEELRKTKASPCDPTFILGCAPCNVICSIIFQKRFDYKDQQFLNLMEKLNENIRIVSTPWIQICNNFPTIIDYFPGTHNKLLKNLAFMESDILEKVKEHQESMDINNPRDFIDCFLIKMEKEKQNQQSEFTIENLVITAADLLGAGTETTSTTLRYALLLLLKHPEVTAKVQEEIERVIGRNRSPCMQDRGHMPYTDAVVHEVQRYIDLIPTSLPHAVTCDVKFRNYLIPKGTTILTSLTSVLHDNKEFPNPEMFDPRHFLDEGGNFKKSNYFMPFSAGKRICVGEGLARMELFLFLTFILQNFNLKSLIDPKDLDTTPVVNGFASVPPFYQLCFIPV
# Cytochrome P450 2C9, sequence (P11712 whole entry): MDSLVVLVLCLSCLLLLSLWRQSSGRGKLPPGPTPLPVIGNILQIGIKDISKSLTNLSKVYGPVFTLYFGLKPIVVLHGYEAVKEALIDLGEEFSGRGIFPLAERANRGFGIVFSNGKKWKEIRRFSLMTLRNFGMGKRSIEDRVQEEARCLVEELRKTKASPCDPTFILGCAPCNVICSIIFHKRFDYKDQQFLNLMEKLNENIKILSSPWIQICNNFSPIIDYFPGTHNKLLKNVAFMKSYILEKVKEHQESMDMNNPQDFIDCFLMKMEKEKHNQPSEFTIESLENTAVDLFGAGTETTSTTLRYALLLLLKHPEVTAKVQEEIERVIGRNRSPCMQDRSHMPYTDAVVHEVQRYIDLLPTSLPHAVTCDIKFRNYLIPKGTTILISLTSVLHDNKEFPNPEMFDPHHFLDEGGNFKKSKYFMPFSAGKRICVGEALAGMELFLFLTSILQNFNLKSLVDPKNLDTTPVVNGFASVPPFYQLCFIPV
compound,measurement,setting,value
COc1ccc(CN2CCCC(C(=O)c3cccc(OC(C)C)c3)C2)cc1Cn1cccn1 (configuration not stated),EC50,[1],> 112 µM (not active)
same,EC50,[2],> 112 µM (not active)
COCCNC(=O)COc1ccc(Nc2ccccc2)cc1,IC50,[3],47.6 µM (active)
CN(C(S)=Nc1ccc(SC(F)F)cc1)C(c1ccccc1)c1ccccc1,AC50,[4],4.57 µM (active)
CCCCn1c(N)c(N(Cc2ccccc2OC)C(=O)C(C)Oc2ccc(Cl)cc2)c(=O)[nH]c1=O (configuration not stated),EC50,[1],> 112 µM (not active)
same,EC50,[2],> 112 µM (not active)
Cc1ccccc1-c1ccc(CN2CCN(C)C(CCO)C2)cc1 (configuration not stated),EC50,[5],0.828 µM (active)
same,EC50,[6],4.69 µM (active)
same,AC50,[4],2.9 µM (active)
O=[N+]([O-])c1ccc(N2CCC(=NOCc3ccc(Cl)cc3)CC2)cc1,AC50,Cytochrome P450 3A4,35.5 µM (inconclusive)
same,AC50,Cytochrome P450 2C9,14.1 µM (inconclusive)
same,AC50,Cytochrome P450 2C19,4.47 µM (inconclusive)
Cc1nn(CC(=O)Nc2cccnc2)c(C)c1[N+](=O)[O-],EC50,[1],> 112 µM (not active)
same,EC50,[2],7.26 µM (active)
N=C(NOC(=O)c1ccc(Cl)cc1)c1[nH]ncc1Br,EC50,[1],0.882 µM (active)
same,EC50,[2],4.36 µM (active)
C=C(Br)Cn1c(CCCC)nc2ccccc21,AC50,[4],0.514 µM (active)
O=C(O)/C=C/c1cccc(NC(=O)c2ccccc2)c1,EC50,[1],4.49 µM (active)
same,EC50,[2],17.4 µM (active)
Cc1ccc(-c2nn(-c3ccccc3)cc2/C=C/C(=O)Nc2cccc(S(N)(=O)=O)c2)cc1,AC50,INS1,3.29 µM (active)
Cc1cccc(N2C(S)=C(C#N)C(=O)NC2c2cccs2)c1 (configuration not stated),IC50,[3],110 µM (active)
CCOC(=O)Nc1ccc2nc(Sc3ccc(Cl)cc3)sc2c1,AC50,[4],1.53 µM (active)
CS(=O)(=O)N1CCC2(CCCN(C(=O)Nc3cccc(F)c3)C2)CC1,AC50,Cytochrome P450 3A4,20 µM (inconclusive)
CC1CCN(CC(=O)Nc2ccc(S(=O)(=O)NC3CC3)cc2)CC1,IC50,[3],179 µM (active)
same,EC50,[7],> 195 µM (not active)
O=C(CC1(O)C(=O)N(Cc2ccccc2)c2ccccc21)c1ccncc1 (configuration not stated),EC50,[1],> 112 µM (not active)
same,EC50,[2],> 112 µM (not active)
CC(=O)Nc1ccc(Nc2ccccc2)cc1,IC50,[3],75.6 µM (active)
O=C(COc1ccc2ccccc2c1)NNC(=O)Cc1cccc2ccccc12,AC50,Cytochrome P450 3A4,14.1 µM (inconclusive)
same,AC50,Cytochrome P450 2C19,0.398 µM (inconclusive)
Cc1ccccc1CNc1ccc(C(CC(N)=O)NC(=O)c2ccccc2)cc1[N+](=O)[O-] (configuration not stated),AC50,[4],3.49 µM (active)
O=C(Cc1ccc(Cl)c(Cl)c1)Nc1ccc(SC(F)F)cc1,AC50,[4],4.04 µM (active)
CC1(C)CC(=O)C(C(C#Cc2ccccc2)C2=C(O)CC(C)(C)CC2=O)=C(O)C1,AC50,Cytochrome P450 3A4,31.6 µM (inconclusive)
COCCn1c(=O)c(-c2cn(C)c3ccccc23)nc2cnc(OCc3ccccc3)nc21,AC50,Cytochrome P450 3A4,7.94 µM (inconclusive)
CN(C)CCOC(=O)CCc1ccccc1,EC50,[1],> 112 µM (not active)
same,EC50,[2],> 112 µM (not active)
Cc1cc(C)c(-c2noc(C(=O)OC(C)(C)C)c2C(=O)OC(C)(C)C)c(C)c1,AC50,Cytochrome P450 2C9,12.6 µM (inconclusive)
same,EC50,[8],10.4 µM (active)
same,AC50,Cytochrome P450 2C19,11.2 µM (inconclusive)
same,EC50,Streptokinase A,11.5 µM (active)
same,EC50,Streptococcus,> 150 µM (not active)
Cc1cc(NC(=S)NC(=O)CC(C)C)ccc1Br,AC50,Cytochrome P450 3A4,20 µM (inconclusive)
same,AC50,Cytochrome P450 2C9,0.0447 µM (inconclusive)
OC(CNCC1COc2ccccc2O1)COCc1cccs1 (configuration not stated),IC50,[3],76.9 µM (active)
Cc1cc(C(F)(F)F)nn1CC(=O)Nc1cccnc1,AC50,Cytochrome P450 3A4,25.1 µM (inconclusive)
same,AC50,Cytochrome P450 2C9,39.8 µM (inconclusive)
same,AC50,Cytochrome P450 2C19,22.4 µM (inconclusive)
CC(OC(=O)CCNC1=NS(=O)(=O)c2ccccc21)C(=O)Nc1ccc(N(C)C)cc1 (configuration not stated),IC50,[3],54.7 µM (active)
Cc1ccsc1/C=N/Nc1nc2ccccc2[nH]1,IC50,[3],71.6 µM (active)
O=[N+]([O-])C(=C\Nc1ccccc1O)/C=N/c1ccccc1O,IC50,[3],58.9 µM (active)
C/C(=N\Nc1nc(C)cc(-c2ccccc2)n1)c1cccc(N)c1,AC50,INS1,2.76 µM (active)
O=C(N/N=C/c1ccc(OC2CSC2)cc1)c1ccccc1,AC50,[4],2.49 µM (active)
CC1(C)C(=O)N=C2C1=C(O)C(=O)c1ccccc12,AC50,Cytochrome P450 3A4,31.6 µM (inconclusive)
same,AC50,Cytochrome P450 2C9,25.1 µM (inconclusive)
same,AC50,Cytochrome P450 2C19,31.6 µM (inconclusive)
CCCCC[C@H](O)/C=C/[C@H]1[C@H](O)CC(=O)[C@@H]1CCCCCCC(=O)O [ALPROSTADIL],EC50,[1],> 112 µM (not active)
same,EC50,[2],< 0.088 µM (active)

# — ChEMBL document CHEMBL1201862, “PubChem BioAssay data set” (2004)
